Data on one compound can be found in ChEMBL document CHEMBL1147322, “X-ray crystal structure of acrovestone, a cytotoxic principle from Acronychia pedunculata” (1989).

Converted amounts (≈) assume the structure as drawn.

Assay type in all cases: functional
The test system of assay [1] is P388. Description: Cytotoxicity against mouse P388 cells. To be noted: read-out: ED50 (the source's name).
The test system of assay [2] is KB. As to the kind of experiment: Cytotoxicity against human KB cells at 0.5 ug/ml.
The test system of assay [3] is A549. As to the kind of experiment: Cytotoxicity against human A549 cells. To be noted: read-out: ED50 (the source's name).
In assay [4] the test system is L1210. Description: Cytotoxicity against mouse L1210 cells. To be noted: read-out: ED50 (the source's name).

`COc1c(CC=C(C)C)c(O)c([C@H](CC(C)C)c2c(O)c(CC=C(C)C)c(O)c(C(C)=O)c2O)c(O)c1C(C)=O` [ACROVESTONE]: the EC50 in assay [1] was 3.28 µg/mL (≈ 5.91 µM); in assay [3], 0.98 µg/mL (≈ 1.77 µM); in assay [4] it was 2.95 µg/mL (≈ 5.32 µM). The compound further showed an inhibition at 0.5 µg/mL in assay [2] of 100%.
